How the values were obtained:
human GR [1] = target: T1, human GR (Homo sapiens, UniProt P04150); experiment: Trans-Activation Modulation of Glucocorticoid Receptor (GRAMMER), MMTV-LUC reporter, agonist mode; type: cell-based; set-up: endogenous in cells; details: for Emax: A549, A549 cells, maximum activity, read-out: Transactivation A549 Cells GRAMMER Emax; for EC50: A549 cells, inflection point, read-out: Transactivation A549 Cells GRAMMER IP
T1 sequence (P04150 1-777): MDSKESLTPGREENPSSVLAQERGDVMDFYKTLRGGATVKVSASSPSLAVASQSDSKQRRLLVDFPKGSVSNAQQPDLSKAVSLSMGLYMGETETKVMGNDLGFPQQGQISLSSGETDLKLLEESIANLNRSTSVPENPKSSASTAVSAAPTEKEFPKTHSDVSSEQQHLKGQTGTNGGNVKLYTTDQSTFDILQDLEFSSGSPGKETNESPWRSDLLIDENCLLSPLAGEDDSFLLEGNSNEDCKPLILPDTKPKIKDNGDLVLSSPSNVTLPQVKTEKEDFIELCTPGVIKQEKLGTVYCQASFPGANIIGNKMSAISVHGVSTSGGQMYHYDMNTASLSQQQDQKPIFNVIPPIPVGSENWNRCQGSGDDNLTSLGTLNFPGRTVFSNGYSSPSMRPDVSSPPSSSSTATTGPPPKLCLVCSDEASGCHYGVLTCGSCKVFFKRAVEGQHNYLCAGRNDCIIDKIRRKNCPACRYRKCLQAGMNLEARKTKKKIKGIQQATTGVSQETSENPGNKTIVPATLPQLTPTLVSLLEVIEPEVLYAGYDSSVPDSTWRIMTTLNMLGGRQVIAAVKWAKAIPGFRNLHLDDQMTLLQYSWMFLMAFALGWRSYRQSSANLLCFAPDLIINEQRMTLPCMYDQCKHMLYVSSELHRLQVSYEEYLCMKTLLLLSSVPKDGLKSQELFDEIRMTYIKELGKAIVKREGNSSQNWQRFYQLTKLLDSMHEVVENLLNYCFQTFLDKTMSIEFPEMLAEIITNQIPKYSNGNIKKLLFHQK
Source text: This assay assesses the ability of test compounds to control transcription from the MMTV-LUC reporter gene in lung adenocarcinoma A549 cells or MDA-MB-453 cells, a human breast cancer cell line that naturally expresses the human GR. The assay measures induction of a modified MMTV LTR/promoter linked to the LUC reporter gene.
The routine transient assay consists of plating 7,000-25,000 cells/well of a white, clear-bottom 96-well plate. Alternatively, 384-well plates can be used at a cell concentration of 10,000/well. The media that the cells are plated in is “exponential growth medium” which consists of phenol red-free RPMI1640 containing 10% FBS, 4 mM L-glutamine, 20 mM HEPES, 10 ug/mL human insulin, and 20 ug/mL gentamicin. Incubator conditions are 37° C. and 5% CO2. The transfection is done in batch mode. The cells are trypsinized and counted to the right cell number in the proper amount of fresh media. It is then gently mixed with the FuGene6/DNA mix and plated onto the 96 or 384-well plate, all the wells receive 100 uL or 40 uL, respectively, of medium+lipid/DNA complex then incubated 37° C. overnight. The transfection cocktail consists of serum-free OptiMEM, FuGene6 reagent and DNA. The manufacturer's (Roche Biochemical) protocol for cocktail setup is as follows: The lipid to DNA ratio is approximately 2.5:1 and the incubation time is 20 min at room temperature. Sixteen to 24 hours after transfection, the cells are treated with dexamethasone to a final concentration of 10 nM as well as the compound of interest, such that final DMSO (vehicle) concentration is equal to or less than 1%. Each plate also contains samples that are treated with 10 nM dexamethasone alone, which is used as the 100% activity control. The cells are exposed to the compounds for 24 hours. After 24 hours, the cells are lysed by a Promega cell culture lysis buffer for approximately 30 min and then the luciferase activity in the extracts is assayed in the 96-well format luminometer. In 384-well format, Steady-Glo (Promega) or Steady-Lite (PerkinElmer) can be used by adding an equal volume of reagent to the media present in each well. Activity induced by 10 nM dexamethasone alone is set at 100% activity. Antagonist activity is calculated by determining the decrease in dexamethasone-induced activity in response to compound treatment relative to samples that were treated with dexamethasone alone. […] This transactivation assay can be performed in an agonist and antagonist mode to identify these different activities.

human GR [2] = target: T1, human GR; experiment: Transrepression Assay (GITAR), TNFα-β-lactamase reporter in U937 cells; type: cell-based; set-up: U937 cells contain an endogenous glucocorticoid receptor (GR); endogenous in cells; host or cells: U937 cells stably transfected with the TNF-alpha promoter/beta-lactamase reporter; details: for GITAR > GRAMM % SEP: GITAR Emax minus GRAMMER Emax; for EC50: U937 cells, inflection point, read-out: Transrepression U937 Cells GITAR IP
Source text: This assay assesses the ability of test compounds to control transcription from the TNFα-β-lactamase reporter gene in U937 cells, a human myelomonocytic leukemia cell line that naturally expresses the human GR. The assay measures compound dependent-repression of the TNFa promoter linked to a reporter gene.
The human U937 cells that had been stablely transfected with the TNF-α promoter driving β-lactamase are used for this assay. U937 cells contain an endogenous glucocorticoid receptor (GR). Cells are maintained in RPMI 1640 Growth medium (Gibco Cat#11875-093) containing 25 mM HEPES, 10% FBS, 2 mM L-Glutamine, 1 mM Sodium pyruvate, 25 μg/ml Gentamicin (Gibco Cat#15710-064), 1:1000 2-Mercaptoethanol (Gibco Cat#21985-023) and 0.8 mg/ml G418 (Gibco Cat#10131-027). The density of the cells in the flask needs to be about 1×10^6−3×10^6/ml at the time of harvest. Usually, the cells are split to 1.2˜1.4×10^5/ml (1:10) 3 days prior to the assay. 50,000 cells/well are plated in 96 well black-walled plates the day of assay. Test compounds are added 10 μL/well, and cells are incubated at 37° C. for 30˜45 min. For assaying compounds, first dilute 1:10 in DMSO to make 1 mM, then further dilute 1:100 in medium to make 10× stock prior to adding to the cells. Add 50 ng/mlPMA (Sigma, cat# P8139) 10 μL/well to a final concentration 5 ng/ml, and 1 μg/ml LPS (Sigma, cat# L4130) 10 μL/well to a final concentration 100 ng/ml. Incubate cells at 37° C. overnight for ˜18 hr. PMA is stored frozen as 100 μg/ml stock in DMSO. Dilute 1:10 in DMSO for a working stock of 10 μg/ml and store at −20 C. For assaying, dilute the 10 μg/ml working stock 1:200 in medium to make a 10× solution (50 ng/ml). Store frozen LPS at 1 mg/ml in PBS, dilute 1:1000 in medium to make 10× (1 μg/ml) for the assay. Add 6× loading buffer (CCF2-AM) 20 μL/well, and incubate at room temperature for 70˜90 min. […] The activity repressed by 100 nM dexamethasone alone is set as 100% activity.

[3] = U-937, U937 cells, maximum activity, read-out: Transrepression U937 Cells GITAR Emax
[4] = U-937, activity repressed by 100 nM dexamethasone alone set as 100%, read-out: maximal activity in the transrepression (GITAR) assay

Question: What does the source list for `C[C@]12Cc3cnn(-c4ccc(F)cc4)c3C=C1CC[C@@H]2CN(CC(O)C(F)(F)F)S(=O)(=O)Cc1ccccc1C(N)=O` (stereo partly drawn) [Example 167, 2-({[{[(4αR,5S)-1-(4-fluorophenyl)-4α-methyl-1,4,4α,5,6,7-hexahydrocyclopenta[f]indazol-5-yl]methyl}(3,3,3-trifluoro-2-hydroxypropyl)amino]sulfonyl}methyl) benzamide]?
Answer: Emax (human GR [1]): 74.9%; EC50 (human GR [1]): 0.15 µM; GITAR > GRAMM % SEP (human GR [2]): 12.5%; EC50 (human GR [2]): 0.159 µM; Emax (human GR [2]; [3]): 87.4%; Emax (human GR [2]; [4]): > 5%

Question: Which Emax (human GR [1]) does the source give for `COc1ccccc1CCN(C[C@H]1CCC2=Cc3c(cnn3-c3ccccc3)C[C@@]21C)S(=O)(=O)CC(F)(F)F` [Example 139, 2,2,2-trifluoro-N-[2-(2-methoxyphenyl)ethyl]-N-{[(4αR,5S)-4α-methyl-1-phenyl-1,4,4α,5,6,7-hexahydrocyclopenta[f]indazol-5-yl]methyl}ethanesulfonamide] here?
Answer: 70.7%

Question: And the EC50 (human GR [1])?
Answer: 0.262 µM

Question: And the “GITAR > GRAMM % SEP” value (human GR [2])?
Answer: 1.7%

Question: And the EC50 (human GR [2])?
Answer: 0.798 µM

Question: And the Emax (human GR [2]; [3])?
Answer: 72.4%

Question: What about the Emax (human GR [2]; [4]) of the same compound?
Answer: > 5%

Question: Which Emax (human GR [1]) does the source give for `C[C@]12Cc3cnn(-c4ccc(F)cc4)c3C=C1CC[C@@H]2CN(CC(OS(=O)(=O)CC(F)(F)F)C(F)F)S(=O)(=O)CC(F)(F)F` (stereo partly drawn) [Example 134, 2,2-difluoro-1-({{[(4αR,5S)-1-(4-fluorophenyl)-4α-methyl-1,4,4α,5,6,7-hexahydrocyclopenta[f]indazol-5-yl]methyl}[(2,2,2-trifluoroethyl)sulfonyl]amino}methyl)ethyl 2,2,2-trifluoroethanesulfonate] here?
Answer: 89.2%

Question: And the EC50 (human GR [1])?
Answer: 0.216 µM

Question: And the “GITAR > GRAMM % SEP” value (human GR [2])?
Answer: 4.7%

Question: And the EC50 (human GR [2])?
Answer: 0.243 µM

Question: And the Emax (human GR [2]; [3])?
Answer: 93.8%

Question: And the Emax (human GR [2]; [4])?
Answer: > 5%

Question: How did the Emax (human GR [1]) turn out when `CN1CCOc2cc(S(=O)(=O)N(CC3CC3)C[C@H]3CCC4=Cc5c(cnn5-c5ccc(F)cc5)C[C@@]43C)ccc21` [Example 8, N-(cyclopropylmethyl)-N-{[(4αR,5S)-1-(4-fluorophenyl)-4α-methyl-1,4,4α,5,6,7-hexahydrocyclopenta[f]indazol-5-yl]methyl}-4-methyl-3,4-dihydro-2H-1,4-benzoxazine-7-sulfonamide] was run?
Answer: 4.9%

Question: And the EC50 (human GR [1])?
Answer: 0.037 µM

Question: And the “GITAR > GRAMM % SEP” value (human GR [2])?
Answer: 12.4%

Question: And the EC50 (human GR [2])?
Answer: 0.424 µM

Question: What about the Emax (human GR [2]; [3]) of the same compound?
Answer: 17.4%

Question: What about the Emax (human GR [2]; [4]) of the same compound?
Answer: > 5%

Question: How did the Emax (human GR [1]) turn out when `CCCS(=O)(=O)N(CC(O)C(F)F)C[C@H]1CCC2=Cc3c(cnn3-c3ccc(F)cc3)C[C@@]21C` (stereo partly drawn) [Example 155, N-(3,3-difluoro-2-hydroxypropyl)-N-{[(4αR,5S)-1-(4-fluorophenyl)-4α-methyl-1,4,4α,5,6,7-hexahydrocyclopenta[f]indazol-5-yl]methyl}propane-1-sulfonamide] was run?
Answer: 29%

Question: What about the EC50 (human GR [1]) of the same compound?
Answer: 0.989 µM

Question: And the “GITAR > GRAMM % SEP” value (human GR [2])?
Answer: 32.2%

Question: What about the EC50 (human GR [2]) of the same compound?
Answer: 1.09 µM

Question: What about the Emax (human GR [2]; [3]) of the same compound?
Answer: 61.3%

Question: And the Emax (human GR [2]; [4])?
Answer: > 5%

Question: For `C[C@]12Cc3cnn(-c4ccc(F)cc4)c3C=C1CC[C@@H]2CN(CCc1ccccn1)S(=O)(=O)CCN1C(=O)c2ccccc2C1=O` [Example 152, 2-(1,3-dioxo-1,3-dihydro-2H-isoindol-2-yl)-N-{[(4αR,5S)-1-(4-fluorophenyl)-4α-methyl-1,4,4α,5,6,7-hexahydrocyclopenta[f]indazol-5-yl]methyl}-N-(2-pyridin-2-ylethyl)ethanesulfonamide], which Emax (human GR [1]) is on record?
Answer: 2%

Question: What about the EC50 (human GR [1]) of the same compound?
Answer: 0.0639 µM

Question: And the “GITAR > GRAMM % SEP” value (human GR [2])?
Answer: 21.0%

Question: And the EC50 (human GR [2])?
Answer: 1.03 µM

Question: What about the Emax (human GR [2]; [3]) of the same compound?
Answer: 23%

Question: What about the Emax (human GR [2]; [4]) of the same compound?
Answer: > 5%

Question: With `C[C@]12Cc3cnn(-c4ccc(F)cc4)c3C=C1CC[C@@H]2CN(CC(O)c1ccccn1)S(=O)(=O)CC(F)(F)F` (stereo partly drawn) [Example 142, 2,2,2-trifluoro-N-{[(4αR,5S)-1-(4-fluorophenyl)-4α-methyl-1,4,4α,5,6,7-hexahydrocyclopenta[f]indazol-5-yl]methyl}-N-(2-hydroxy-2-pyridin-2-ylethyl)ethanesulfonamide] as the compound, how does the Emax (human GR [1]) read?
Answer: 78.1%

Question: What about the EC50 (human GR [1]) of the same compound?
Answer: 0.123 µM

Question: And the “GITAR > GRAMM % SEP” value (human GR [2])?
Answer: 14.4%

Question: And the EC50 (human GR [2])?
Answer: 0.14 µM

Question: And the Emax (human GR [2]; [3])?
Answer: 92.5%

Question: What about the Emax (human GR [2]; [4]) of the same compound?
Answer: > 5%

Source: US8299048B2, “Hexahydrocyclopentyl[f]indazole sulfonamides and derivatives thereof as selective glucocorticoid receptor modulators” (Merck Sharp & Dohme Corp., priority 2008, dated 2012)
